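Exposure lasted 48 hours, with cells grown in 96-well plates and compounds tested at five concentrations. Abbreviation: GI50, concentration required for 50% inhibition of growth. TGI denotes the concentration required for complete inhibition of growth.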
Key:
Test in all cases: growth of human tumour cells (NCI), 48 h
HOP-92 NSCLC = test system: HOP-92 NSCLC
DU-145 prostate = test system: DU-145 prostate
KM12 colon = test system: KM12 colon
SN12C renal = test system: SN12C renal
UACC-257 melanoma = test system: UACC-257 melanoma
K-562 leukemia = test system: K-562 leukemia
A549 NSCLC = test system: A549 NSCLC
COLO 205 colon = test system: COLO 205 colon
OVCAR-5 ovarian = test system: OVCAR-5 ovarian
MDA-MB-231 breast = test system: MDA-MB-231 breast

Compound	GI50 (HOP-92 NSCLC) [µM]	TGI (HOP-92 NSCLC) [µM]	GI50 (DU-145 prostate) [µM]	TGI (DU-145 prostate) [µM]	GI50 (KM12 colon) [µM]	TGI (KM12 colon) [µM]	GI50 (SN12C renal) [µM]	TGI (SN12C renal) [µM]	GI50 (UACC-257 melanoma) [µM]	TGI (UACC-257 melanoma) [µM]	GI50 (K-562 leukemia) [µM]	TGI (K-562 leukemia) [µM]	GI50 (A549 NSCLC) [µM]	TGI (A549 NSCLC) [µM]	GI50 (COLO 205 colon) [µM]	TGI (COLO 205 colon) [µM]	GI50 (OVCAR-5 ovarian) [µM]	TGI (OVCAR-5 ovarian) [µM]	GI50 (MDA-MB-231 breast) [µM]	TGI (MDA-MB-231 breast) [µM]
COc1cc(/C=C/[N+](=O)[O-])cc(OC)c1OC	2.25	6.52	2.69	6.31	3.68	12.3	2.51	9.26	2.46	9.83	2.81	> 100	4.42	19.4	1.7	3.33	2.09	5.11	1.87	4.86
CN(c1ccc(C#N)c(Cl)c1)C1CCC(NC(=O)c2ccc(N3CCN(C4CN(c5ccc6c(c5)C(=O)N(C5CCC(=O)NC5=O)C6=O)C4)CC3)cc2)CC1 (stereo not given)	10.2	99.8	> 100	> 100	> 100	> 100	> 100	> 100	> 100	> 100	> 100	> 100	> 100	> 100	> 100	> 100	47.6	> 100	18.9	41.6
CSCCCNC(=O)c1csc(-c2csc(CCNC(=O)CNC(=O)CNC(=O)CNC(=O)OC(C)(C)C)n2)n1		> 100		> 100		> 100		> 100		> 100		> 100		> 100		> 100		> 100		> 100
CCN(C(=O)CN1CCN(c2cc3c(cc2F)c(=O)c(C(=O)O)cn3CC)CC1)c1nc(-c2ccccc2)cs1	0.23	0.585	0.453	> 100	0.393	> 100	0.402	> 100	0.307	1.55	0.337	> 100	0.365	> 100	0.226	0.568	0.505	> 100	0.442	> 100
O=C1CCC(N2C(=O)c3cccc(NCCCC4CCN(CCNC(=O)c5cc6c(o5)C(=O)c5ccccc5C6=O)CC4)c3C2=O)C(=O)N1 (stereo not given)	3.51	15.1	0.185	0.344	1.29	3.97	0.252	0.806	0.632	1.87	0.654	6.3	0.189	0.471	0.266	0.808	0.653	2	0.67	6.83
CC1C2CC(C/C2=N/O)C1(C)C (stereo not given)		> 100		> 100		> 100		> 100		> 100		> 100		> 100		> 100		> 100		> 100
O=c1c(O)cccn1CCCN(CCCn1cccc(O)c1=O)CCn1cccc(O)c1=O	6.1	> 100	20.1	> 100	3.12	> 100	3.41	> 100	3.42	22.4	3.97	> 100	4.03	75.2	21.6	> 100	> 100	> 100	8.28	> 100
CC1=C(Cl)C[C@@H](/C(C)=C\Cl)O[C@@]1(O)C(Br)Br		53.2		49.9		> 100		37.2		> 100		> 100		60.3		88.5		44.2		41.7
C=C1C(=O)O[C@H]2[C@H]1CC/C(CNC(=O)/C=C/c1ccccc1)=C\CC[C@@]1(C)O[C@@H]21	1.46	3.38	0.603	1.88	4.94	16.7	1.15	2.79	1.53	3.99	0.551	7.09	4.39	19	0.966	2.6	1.61	4.27	1.59	3.08
COc1ccc(Oc2ccccc2NC(=O)CNC(=O)c2cccc3ccccc23)cc1	> 25	> 25	1.02	> 25	0.577	> 25	2.3	> 25	> 25	> 25	0.143	> 25	1.25	> 25	0.64	2.04	1.98	> 25	2.25	> 25
